Earlier results as cited in patent US20140141213A1, “PHOTOCURABLE INK COMPOSITION, INK JET RECORDING METHOD, RECORDED MATTER, INK SET, INK CARTRIDGE, AND RECORDING APPARATUS” (Seiko Epson Corporation, priority 2009, published 2014).

Settings: primary irritation index

Molecule | P.I.I
C=C(C)C(=O)OCCCCCCOC(=O)C(=C)C [1,6-Hexanediol dimethacrylate] | 0.5
C=CC(=O)OCCCCCCCCCOC(=O)C=C [1,9-Nonanediol diacrylate] | 2.0
C=C(C)C(=O)OCC(O)COC(=O)C(=C)C [2-Hydroxy-1,3-dimethacryloxypropane] | 0.6
C=CC(=O)OCC1COC(C)(CC)O1 (centres unmarked) [(2-Methyl-2-ethyl-1,3-dioxolane-4-yl)methyl acrylate] | 1.3
C=CC(=O)OCC1COC(C)(CC(C)C)O1 (centres unmarked) [(2-Methyl-2-isobutyl-1,3-dioxolane-4-yl)methyl acrylate] | 1.0
C=C(C)C(=O)OCCOCCOC(=O)C(=C)C [Diethylene glycol dimethacrylate] | 0.5
C=C(C)C(=O)OCCOC(=O)C(=C)C [Ethylene glycol dimethacrylate] | 0.6
C=CC(=O)O[C@@H]1C[C@H]2CC[C@]1(C)C2(C)C [Isobornyl acrylate] | 0.6
C=CC(=O)OCCOCCOC [Methoxy diethylene glycol monoacrylate] | 0.7
C=C(C)C(=O)OCC(C)(C)COC(=O)C(=C)C [Neopentyl glycol dimethacrylate] | 0.0
C=CC(=O)OCCOc1ccccc1 [Phenoxyethyl acrylate] | 1.7
C=C(C)C(=O)OCCOCCOCCOCCOC(=O)C(=C)C [Tetraethylene glycol dimethacrylate] | 0.5
C=C(C)C(=O)OCC(CC)(COC(=O)C(=C)C)COC(=O)C(=C)C [Trimethylolpropane trimethacrylate] | 0.8
C=CC(=O)OCC(C)OCC(C)OCC(C)OC(=O)C=C (centres unmarked) [Tripropylene glycol diacrylate] | 1.6
Polyethylene glycol #400 diacrylate | 0.4
Trimethylolpropane PO-modified triacrylate | 0.1
Trimethylolpropane-modified triacrylate | 1.5
